Assay results from patent US6673782B2, “Treatment of systemic lupus erythematosis” (Wisconsin Alumni Research Foundation, priority 1999, dated 2004).
Entries after “also recorded” stand apart in the source; their conditions may differ.

Experiments:
MRL/MPJ-Fas<lpr>mice [1] = assay: Proteinuria in MRL/MPJ-Fas mice on 0.02% calcium diet; assay type: in vivo; conditions: 0.02% Ca diet + 100 ng/mouse/day
MRL/MPJ mice [2] = assay: SLE disease severity (physical symptom) scores in MRL mice on 0.87% calcium diet; assay type: in vivo; parameters: key to Mean scores of disease severity: 0.5 = small sores … 3 = swollen nodes front legs, neck and back legs; conditions: for Mean scores of disease severity: 0.87% Ca, score 0.5-3
Description: MRL mice are the model for the human disease lupus. See Brians, et al., J. Exp. Med. 148:1198-1215, 1978 and P. L. Cohen and R. A. Eisenburg, Annu. Rev. Immunol. 9:243-69, 1991.
(§1) When the MRL mice in this study were 4 weeks old, they were started on one of three experimental diets. All mice were fed the experimental diet which contains 0.87% Ca. Control mice are fed the experimental diet with no 1,25(OH)2D3; one group of 7 mice were fed the experimental diet with 50 ng/mouse/day of 1,25(OH)2D3; and another group of 8 mice were fed the experimental diet with 200 ng/mouse/day of 1,25(OH)2D3. The mice were checked weekly for physical symptoms. In control-fed MRL mice, SLE disease symptoms spontaneously develop after 5 weeks. Symptoms were given numbers from 0.5 to 3, with 0.5 being small sores; 1, swollen lymph nodes under front legs; 2, swollen lymph nodes under front legs and on neck; 3, swollen lymph nodes under front legs, neck and back legs (severity scores for table).
(§2) The diet was then replaced with the same diet providing a dose level of 100 ng/mouse/day.
(§3) The first physical symptoms of lupus began to develop in two female control-fed mice at 14 weeks of age. […] At 17 weeks of age the control mice started to die. Their proteinuria levels were elevated above 300 mg/dl. […] FIG. 1 compares the percentage of mice with elevated proteinuria with the age of the mouse. FIG. 2 compares the severity of the SLE with symptoms the age of the mice.

[3] = Serum calcium, hypercalcemia and death in MRL mice on 0.87% calcium diet; assay type: in vivo; conditions: for Serum calcium: 0.87% Ca diet (controls 8 mg %Ca)
Description: as §1, §2, §3
Serum calcium values were measured and found to be at 8 mg %Ca for the controls, and 12 mg %Ca for both the 50 ng and 100 ng treated groups. The 1,25(OH)2D3 treatment diet was removed at 17 weeks of age, and all mice were fed the 0.87% calcium control diet for the remainder of the experiment.

MRL/MPJ-Fas<lpr>mice [4] = assay: Mortality of MRL/MPJ-Fas mice on 0.02% calcium diet; assay type: in vivo; conditions: 0.02% Ca + 100 ng/mouse/day; between 18 and 20 weeks of age (no control deaths)
Description: (§4) MRL/MPJ-Fasmice were raised on a chow diet. At 5-6 weeks of age 13 mice were switched to a purified diet containing 0.02% calcium and 14 mice were put on a diet containing 0.02% calcium with 100 ng of 1,25(OH)2D3 per/mouse/day. The mice were checked weekly for physical symptoms of lupus. The symptoms were given numerical scores starting at 0.5=small sore on skin; 1=swollen lymph nodes under front legs; 2=swollen lymph nodes under front legs and neck; 3=swollen lymph nodes under front legs, neck, and back legs (severity scores used in figure on the next page).
(§5) FIG. 3A and B and Tables 3 and 4 disclose data points obtained in this study. At 12 weeks of age the 0.02% Ca+100 ng of 1,25(OH)2D3 group began to show SLE symptoms. It was not until 14 weeks of age that the control (0.02% Ca) mice had the same percentage severity as the mice dosed with 1,25(OH)2D3. Between 18 and 20 weeks of age, about 21.4% of the 0.02% Ca+100 ng 1,25(OH)2D3 mice died. However, none of the controls had reached motality. The experiment was ended at 20 weeks of age.

MRL/MPJ-Fas<lpr>mice [5] = assay: Mean symptom scores of lupus in MRL/MPJ-Fas mice on 0.02% calcium diet; assay type: in vivo; conditions: for Mean symptom scores on 0.02% Ca: 0.02% Ca diet + 100 ng/mouse/day, score 0.5-3
Description: as §4, §5

MRL/I mice = conditions: Lemire et al., Autoimmunity 1992; cited from earlier work
MRL/MPJ mice [6] = assay: Proteinuria in MRL mice on 0.87% calcium diet; assay type: in vivo; conditions: for % of Mice with Proteinuria at 100 mg/dL and Greater: 0.87% Ca
Description: as §1
Proteinuria levels were checked weekly started at 16 weeks of age.
as §3

SMILES: C=C1/C(=C\C=C2/CCC[C@]3(C)[C@@H]([C@H](C)CCCC(C)(C)O)CC[C@@H]23)C[C@@H](O)C[C@@H]1O [1,25(OH)2D3, 1α,25-dihydroxyvitamin D3]
- % Proteinurea scores above 100 mg/dl on 0.02% Ca (MRL/MPJ-Fas<lpr>mice [1]; age 10 weeks): 0%
- % Proteinurea scores above 100 mg/dl on 0.02% Ca (MRL/MPJ-Fas<lpr>mice [1]; age 11 weeks): 0%
- % Proteinurea scores above 100 mg/dl on 0.02% Ca (MRL/MPJ-Fas<lpr>mice [1]; age 12 weeks): 7.14%
- % Proteinurea scores above 100 mg/dl on 0.02% Ca (MRL/MPJ-Fas<lpr>mice [1]; age 13 weeks): 14.28%
- % Proteinurea scores above 100 mg/dl on 0.02% Ca (MRL/MPJ-Fas<lpr>mice [1]; age 14 weeks): 14.28%
- % Proteinurea scores above 100 mg/dl on 0.02% Ca (MRL/MPJ-Fas<lpr>mice [1]; age 15 weeks): 35.7%
- % Proteinurea scores above 100 mg/dl on 0.02% Ca (MRL/MPJ-Fas<lpr>mice [1]; age 16 weeks): 28.57%
- % Proteinurea scores above 100 mg/dl on 0.02% Ca (MRL/MPJ-Fas<lpr>mice [1]; age 17 weeks): 28.57%
- % Proteinurea scores above 100 mg/dl on 0.02% Ca (MRL/MPJ-Fas<lpr>mice [1]; age 18 weeks): 42.85%
- % Proteinurea scores above 100 mg/dl on 0.02% Ca (MRL/MPJ-Fas<lpr>mice [1]; age 19 weeks): 28.57%
- % Proteinurea scores above 100 mg/dl on 0.02% Ca (MRL/MPJ-Fas<lpr>mice [1]; age 20 weeks): 28.57%
- Mean scores of disease severity (MRL/MPJ mice [2]; 50 ng/mouse/day until 17 weeks, age 18 weeks): 0.21
- Mean scores of disease severity (MRL/MPJ mice [2]; 50 ng/mouse/day until 17 weeks, age 19 weeks): 0.12
- Mean scores of disease severity (MRL/MPJ mice [2]; 50 ng/mouse/day until 17 weeks, age 20 weeks): 0.33
- Mean scores of disease severity (MRL/MPJ mice [2]; 50 ng/mouse/day until 17 weeks, age 21 weeks): 0.11
- Mean scores of disease severity (MRL/MPJ mice [2]; 50 ng/mouse/day until 17 weeks, age 22 weeks): 0.11
- Mean scores of disease severity (MRL/MPJ mice [2]; 50 ng/mouse/day until 17 weeks, age 23 weeks): 0.11
- Mean scores of disease severity (MRL/MPJ mice [2]; 50 ng/mouse/day until 17 weeks, age 24 weeks): 0.11
- Mean scores of disease severity (MRL/MPJ mice [2]; 50 ng/mouse/day, age 0-13 weeks): 0.00
- Mean scores of disease severity (MRL/MPJ mice [2]; 50 ng/mouse/day, age 14 weeks): 0.00
- Mean scores of disease severity (MRL/MPJ mice [2]; 50 ng/mouse/day, age 15 weeks): 0.00
- Mean scores of disease severity (MRL/MPJ mice [2]; 50 ng/mouse/day, age 16 weeks): 0.21
- Mean scores of disease severity (MRL/MPJ mice [2]; 50 ng/mouse/day, age 17 weeks): 0.21
- Mean scores of disease severity (MRL/MPJ mice [2]; 200 ng then 100 ng/mouse/day until 17 weeks, age 18 weeks): 0.07
- Mean scores of disease severity (MRL/MPJ mice [2]; 200 ng then 100 ng/mouse/day until 17 weeks, age 19 weeks): 0.08
- Mean scores of disease severity (MRL/MPJ mice [2]; 200 ng then 100 ng/mouse/day until 17 weeks, age 20 weeks): 0.00
- Mean scores of disease severity (MRL/MPJ mice [2]; 200 ng then 100 ng/mouse/day until 17 weeks, age 21 weeks): 0.00
- Mean scores of disease severity (MRL/MPJ mice [2]; 200 ng then 100 ng/mouse/day until 17 weeks, age 22 weeks): 0.00
- Mean scores of disease severity (MRL/MPJ mice [2]; 200 ng then 100 ng/mouse/day until 17 weeks, age 23 weeks): 0.00
- Mean scores of disease severity (MRL/MPJ mice [2]; 200 ng then 100 ng/mouse/day until 17 weeks, age 24 weeks): 0.00
- Mean scores of disease severity (MRL/MPJ mice [2]; 200 ng then 100 ng/mouse/day, age 14 weeks): 0.00
- Mean scores of disease severity (MRL/MPJ mice [2]; 200 ng then 100 ng/mouse/day, age 15 weeks): 0.00
- Mean scores of disease severity (MRL/MPJ mice [2]; 200 ng then 100 ng/mouse/day, age 16 weeks): 0.00
- Mean scores of disease severity (MRL/MPJ mice [2]; 200 ng then 100 ng/mouse/day, age 17 weeks): 0.00
- Mean scores of disease severity (MRL/MPJ mice [2]; 200 ng then (from 10 weeks) 100 ng/mouse/day, age 0-13 weeks): 0.00
- Effect on SLE symptoms (MRL/MPJ mice [2]; mice on a 0.87% calcium diet): prevented or slowed SLE symptoms
- Disease severity scores versus controls (MRL/MPJ mice [2]; treated mice, 0.87% Ca diet): much less for the treated mice than for controls
- Physical symptoms of lupus (MRL/MPJ mice [2]; treated mice, 0.87% Ca diet, at 14 weeks of age (two control mice symptomatic)): None of the 1,25(OH)2D3-treated mice showed symptoms
- Serum calcium ([3]; 50 ng treated group): 12 mg %Ca
- Serum calcium ([3]; 100 ng treated group): 12 mg %Ca
- Symptoms of hypercalcemia ([3]; 200 ng/mouse/day, 0.87% Ca diet, at 10 weeks of age): began to show symptoms of hypercalcemia
- Death of treated animals ([3]; 0.87% Ca diet, at 17 weeks of age): began to die of what we believe to be hypercalcemia
- Mice died (MRL/MPJ-Fas<lpr>mice [4]): about 21.4%
- Age at which group began to show SLE symptoms (MRL/MPJ-Fas<lpr>mice [5]; 0.02% Ca + 100 ng/mouse/day): 12 weeks of age
- Mean symptom scores on 0.02% Ca (MRL/MPJ-Fas<lpr>mice [5]; age 10 weeks): 0
- Mean symptom scores on 0.02% Ca (MRL/MPJ-Fas<lpr>mice [5]; age 11 weeks): 0.214 ± 0.410
- Mean symptom scores on 0.02% Ca (MRL/MPJ-Fas<lpr>mice [5]; age 12 weeks): 1.642 ± 0.410
- Mean symptom scores on 0.02% Ca (MRL/MPJ-Fas<lpr>mice [5]; age 13 weeks): 2.14 ± 0.515
- Mean symptom scores on 0.02% Ca (MRL/MPJ-Fas<lpr>mice [5]; age 14 weeks): 2.714 ± 0.45
- Mean symptom scores on 0.02% Ca (MRL/MPJ-Fas<lpr>mice [5]; age 15 weeks): 2.785 ± 0.41
- Mean symptom scores on 0.02% Ca (MRL/MPJ-Fas<lpr>mice [5]; age 16 weeks): 2.85 ± 0.349
- Mean symptom scores on 0.02% Ca (MRL/MPJ-Fas<lpr>mice [5]; age 17 weeks): 2.85 ± 0.349
- Mean symptom scores on 0.02% Ca (MRL/MPJ-Fas<lpr>mice [5]; age 18 weeks): 2.80 ± 0.46
- Mean symptom scores on 0.02% Ca (MRL/MPJ-Fas<lpr>mice [5]; age 19 weeks): 2.77 ± 0.49
- Mean symptom scores on 0.02% Ca (MRL/MPJ-Fas<lpr>mice [5]; age 20 weeks): 2.95 ± 0.33
- Disease progression (MRL/MPJ-Fas<lpr>mice [5]; low calcium diet and treatment): disease progression occurring more quickly
- Effect on SLE symptoms (MRL/MPJ-Fas<lpr>mice [5]; mice on a 0.02% (low) calcium diet): not effective; also recorded: did not inhibit these symptoms
- Effect on symptoms of experimental murine lupus (MRL/I mice): attenuation by 1,25-dihydroxyvitamin D3 of some symptoms
- % of Mice with Proteinuria at 100 mg/dL and Greater (MRL/MPJ mice [6]; 50 ng/mouse/day in diet, treatment removed at 17 weeks, age 18 weeks): 0%
- % of Mice with Proteinuria at 100 mg/dL and Greater (MRL/MPJ mice [6]; 50 ng/mouse/day in diet, treatment removed at 17 weeks, age 19-25 weeks): 0%
- % of Mice with Proteinuria at 100 mg/dL and Greater (MRL/MPJ mice [6]; 50 ng/mouse/day in diet, age 0-15 weeks): 0%
- % of Mice with Proteinuria at 100 mg/dL and Greater (MRL/MPJ mice [6]; 50 ng/mouse/day in diet, age 16-17 weeks): 0%
- % of Mice with Proteinuria at 100 mg/dL and Greater (MRL/MPJ mice [6]; 200 ng then 100 ng/mouse/day in diet, treatment removed at 17 weeks, age 18 weeks): 0%
- % of Mice with Proteinuria at 100 mg/dL and Greater (MRL/MPJ mice [6]; 200 ng then 100 ng/mouse/day in diet, treatment removed at 17 weeks, age 19-25 weeks): 0%
- % of Mice with Proteinuria at 100 mg/dL and Greater (MRL/MPJ mice [6]; 200 ng then 100 ng/mouse/day in diet, age 16-17 weeks): 0%
- % of Mice with Proteinuria at 100 mg/dL and Greater (MRL/MPJ mice [6]; 200 ng then (from 10 weeks) 100 ng/mouse/day in diet, age 0-15 weeks): 0%
- Development of proteinuria of 100 mg/dL or greater (MRL/MPJ mice [6]; all treated mice, 0.87% Ca diet, whole experiment): none of the 1,25(OH)2D3 treated mice developed proteinuria of 100 mg/dL or greater
